Measured values reported in PubChem BioAssay (NCI).
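Five concentrations, 48 hours, 96-well plates. Abbreviation: GI50, concentration required for 50% inhibition of growth. TGI marks complete inhibition of growth.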

Experiments:
Assay in all cases: inhibition of tumour cell growth, NCI panel, 48 h
OVCAR-8 ovarian = test system: OVCAR-8 ovarian
IGROV1 ovarian = test system: IGROV1 ovarian
A549 NSCLC = test system: A549 NSCLC
SK-MEL-2 melanoma = test system: SK-MEL-2 melanoma
SN12C renal = test system: SN12C renal
SW-620 colon = test system: SW-620 colon
SK-OV-3 ovarian = test system: SK-OV-3 ovarian
SNB-75 CNS = test system: SNB-75 CNS
HOP-92 NSCLC = test system: HOP-92 NSCLC
DU-145 prostate = test system: DU-145 prostate

SMILES	TGI (OVCAR-8 ovarian) [µM]	TGI (IGROV1 ovarian) [µM]	TGI (A549 NSCLC) [µM]	TGI (SK-MEL-2 melanoma) [µM]	TGI (SN12C renal) [µM]	TGI (SW-620 colon) [µM]	TGI (SK-OV-3 ovarian) [µM]	TGI (SNB-75 CNS) [µM]	TGI (HOP-92 NSCLC) [µM]	GI50 (HOP-92 NSCLC) [µM]	GI50 (OVCAR-8 ovarian) [µM]	GI50 (IGROV1 ovarian) [µM]	GI50 (A549 NSCLC) [µM]	GI50 (SK-MEL-2 melanoma) [µM]	GI50 (SN12C renal) [µM]	GI50 (SW-620 colon) [µM]	GI50 (SK-OV-3 ovarian) [µM]	GI50 (SNB-75 CNS) [µM]	GI50 (DU-145 prostate) [µM]	TGI (DU-145 prostate) [µM]
Cc1cc2c(=O)cc(-c3ccc(Cl)cc3)oc2c(C(=O)O)c1C	> 100	> 100	> 100	> 100	> 100	> 100	> 100	> 100												
Cc1c(Cl)cccc1NC(=O)C(=O)C1C(=O)NC(=O)NC1=O	> 100	> 100	> 100	> 100	> 100	> 100	> 100	> 100	> 100											
CC(CN(CP(=O)([O-])[O-])CP(=O)([O-])[O-])N(CP(=O)([O-])[O-])CP(=O)([O-])[O-].N[C@@H]1CCCC[C@@H]1N.[Pt+2] (centres undefined)	> 100	> 100	> 100	> 100	> 100	> 100	> 100	> 100	> 100	> 100	> 100	> 100	> 100	> 100	> 100	> 100	> 100	> 100		
CCCCCCCCCCCCC(Br)C(=O)SCCNC(=O)CCNC(=O)[C@@H](O)C(C)(C)COP(=O)(O)OP(=O)(O)OCC1OC(n2cnc3c(N)ncnc32)C(O)C1OP(=O)(O)O (some centres undefined)	> 56.5	> 56.5	> 56.5	> 56.5	> 56.5	> 56.5	> 56.5	> 56.5	> 56.5											
COc1nc2c(nc(N)n2C2OC(CO)C(O)C(O)C2O)c(=O)n1C (centres undefined)	> 100	> 100	> 100		> 100	> 100	> 100	> 100	> 100											
CC(C)(C)c1ccccc1NS(=O)(=O)c1ccccc1	> 100	> 100	> 100	> 100	> 100	> 100	> 100	> 100												
CCOc1ccc(NC(=O)C2=C(C)NC(C)=C(C(=O)Nc3ccc(OCC)cc3)C2c2ccc([N+](=O)[O-])cc2)cc1	> 100	> 100	> 100	45.7	> 100	> 100	> 100	> 100	58.6											
CCCCCCCCCCCCCC(=O)OCC1OC(OC)C(NC(=O)N(CCCl)N=O)C(O)C1O (centres undefined)	61.1	> 100	58.2	71.2	76.3	30.9		73.5												
CN(C)/[N+]([O-])=N/Oc1cc(Nc2ccc(C(=O)O)cc2)c([N+](=O)[O-])cc1[N+](=O)[O-]	52.1	34.4	> 100	39	33.6	> 100		52.1			22.1	14.9	75	17.1	18.6	45.4		25.7	18	35.7
Cc1cc(Cl)ccc1NC(=O)C1C(=O)N(c2ccc(Cl)cc2C)C(=O)/C1=N\N (centres undefined)	> 100	> 100	> 100	90.9	> 100	> 100	> 100	> 100	> 100											
Cc1ccccc1NC(=O)c1[nH]c(=S)nc(N)c1-c1ccccc1C	> 100	> 100	> 100	> 100	> 100	> 100	> 100	76.1	> 100											
O=C1C(c2ccccc2)=C(c2ccccc2)C(c2ccccc2)/C1=C1\C(=O)C(c2ccccc2)=C(c2ccccc2)C1c1ccccc1 (centres undefined)	> 100	> 100	> 100	> 100	> 100	> 100	> 100	> 100	> 100											
COc1ccc(C2CC(c3cc(OC)c(OC)c(OC)c3)=NN2)cc1 (centres undefined)	> 100	> 100	> 100		> 100	> 100	> 100		> 100	20.1	28.4	5.98	6.23		31.4	4.58	12.4		33.9	> 100
C[Si](C)(C)/C(Br)=C\CCN1C(=O)CCC1O (centres undefined)	> 100	> 100	> 100	> 100	> 100	> 100	> 100	> 100	> 100											
